According to PMC3496387 (Molecular pharmaceutics, 2009):
Read-outs that look alike come from different tables or passages of the source.

Experiments:
[1] = n=3
[2] = Stability in rat intestinal; type: in vitro ADME; details: rat intestinal perfusate, similar conditions, control compound
[3] = isotonic buffer pH 1.2, 37°C, * = estimated half lives
[4] = isotonic buffer pH 4.0, 37°C, * = estimated half lives
[5] = isotonic buffer pH 6.0, 37°C, * = estimated half lives

| Compound | Half lives, t1/2 [1, 3] | Half lives, t1/2 [1, 4] | Half lives, t1/2 [1, 5] | Half lives, t1/2 ([1]; isotonic buffer pH 7.4, 37°C) | time to complete hydrolysis [2] |
| --- | --- | --- | --- | --- | --- |
| CC(OC(=O)c1ccccc1)OC(=O)[C@@H](N)Cc1ccccc1 (stereo partly drawn) [BA-Et-Phe, 1-((S)-2-amino-3-phenylpropanoyloxy) ethyl benzoate] | 1732 min | 3465 ^* min | 385 ± 19 min | 24 ± 2 min | – |
| NC(Cc1ccccc1)C(=O)OCOC(=O)c1ccccc1 (stereo not drawn) [BA-Me-Phe, (2-amino-3-phenylpropanoyloxy) methyl benzoate] | 193 min | 385 min | 2.1 min | – | – |
| CC(OC(=O)Cc1ccccc1)OC(=O)C(N)C(C)C (stereo not drawn) [PA-Et-Val, 1-(2-phenylacetoxy) ethyl 2-amino-3-methylbutanoate] | 11550 ^* min | 23100 ^* min | 1732.5 min | 50 ± 14.8 min | – |
| CC(C)C[C@H](NC(=O)[C@H](Cc1ccccc1)NC(=O)CNC(=O)CNC(=O)[C@@H](N)Cc1ccc(O)cc1)C(=O)O [leu-enkephalin] | – | – | – | – | ≤ 1 h |
